Publication PMC7339578, “Multiple circulating alkaloids and saponins from intravenous Kang-Ai injection inhibit human cytochrome P450 and UDP-glucuronosyltransferase isozymes: potential drug–drug interactions” (Chinese Medicine, 2020)
Where two headings read alike, the source gives them in different places.

Experiments:
[1] = Urinary (renal) excretion in rats after a 30-min infusion of Kang-Ai injection; type: in vivo, Sprague–Dawley rats; settings: for CL renal: male, Sprague-Dawley, rat; for fe-U,0–12h (fraction of dose excreted into urine): rat urine 0–12 h
Method in brief: (§1)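 Urine collected in metabolic cages at 0–4, 4–8, 8–12 h and bile at 0–3, 3–6, 6–9, 9–12 h after infusion start, weighed and frozen at −80 °C. Non-compartmental analysis; CLR and CLB as cumulative urinary or biliary amount divided by plasma AUC0-∞, fe-U and fe-B as cumulative amount/dose; mean ± SD (n = 3).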

[2] = Biliary (hepatobiliary) excretion in rats after a 30-min infusion of Kang-Ai injection; type: in vivo, Sprague–Dawley rats; settings: for fe-B,0–12h (fraction of dose excreted into bile): rat bile 0–12 h, Kang-Ai injection 6 mL/kg iv
Method in brief: as §1

[3] = molecular target: CYP3A4 (Homo sapiens, UniProt P08684); assay: Inhibition of recombinant CYP3A4 (probe nifedipine); type: in vitro ADME; settings: mean ± SD of triplicate, unit not given (IC50 classes in μM)
Protocol: In this study, phenacetin (100 μM), coumarin (100 μM), bupropion (100 μM), paclitaxel (60 μM), tolbutamide (200 μM), mephenytoin (100 μM), chlorzoxazone (200 μM) and nifedipine (40 μM) have been used as the probe substrates for CYP1A2, 2A6, 2B6, 2C8, 2C9, 2C19, 2E1 and 3A4, respectively.

[4] = molecular target: T1, UGT1A9 (Homo sapiens, UniProt O60656); assay: Inhibition of expressed UGT1A9 (probe propofol); type: in vitro ADME; settings: mean ± SD of triplicate, unit not given (IC50 classes in μM)
T1 sequence (O60656 26-530): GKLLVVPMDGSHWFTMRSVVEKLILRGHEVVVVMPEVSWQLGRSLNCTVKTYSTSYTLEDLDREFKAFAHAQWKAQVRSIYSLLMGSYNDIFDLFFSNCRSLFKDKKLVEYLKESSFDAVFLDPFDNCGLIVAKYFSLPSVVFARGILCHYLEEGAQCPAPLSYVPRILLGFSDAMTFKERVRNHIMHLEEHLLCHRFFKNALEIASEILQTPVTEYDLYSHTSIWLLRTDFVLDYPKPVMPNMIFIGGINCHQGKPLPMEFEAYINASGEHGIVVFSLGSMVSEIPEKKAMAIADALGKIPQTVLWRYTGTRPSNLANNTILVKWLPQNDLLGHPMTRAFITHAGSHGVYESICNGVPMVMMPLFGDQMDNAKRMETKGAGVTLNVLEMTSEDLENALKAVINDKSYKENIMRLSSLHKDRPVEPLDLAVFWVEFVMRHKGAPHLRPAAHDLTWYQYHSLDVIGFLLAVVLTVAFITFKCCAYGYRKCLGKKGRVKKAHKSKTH
Protocol: (§2) After centrifugation (13,800g, 10 min), the supernatant (8 μL) was obtained for determination by UHPLC system.
(§3) Similarly, β-estradiol (60 μM), propofol (40 μM) and 4-MU (350 μM) were typically used as the substrates for UGT1A1, 1A9 and 2B7, respectively. After optimization of incubation conditions (Additional file 1: Fig. S2), the protein concentrations for UGT1A1, 1A9, and 2B7 were 0.125, 0.05, and 0.05 mg/mL, respectively.

[5] = molecular target: T2, UGT2B7 (Homo sapiens, UniProt P16662); assay: Inhibition of expressed UGT2B7 (probe 4-MU); type: in vitro ADME
T2 sequence (P16662 24-529): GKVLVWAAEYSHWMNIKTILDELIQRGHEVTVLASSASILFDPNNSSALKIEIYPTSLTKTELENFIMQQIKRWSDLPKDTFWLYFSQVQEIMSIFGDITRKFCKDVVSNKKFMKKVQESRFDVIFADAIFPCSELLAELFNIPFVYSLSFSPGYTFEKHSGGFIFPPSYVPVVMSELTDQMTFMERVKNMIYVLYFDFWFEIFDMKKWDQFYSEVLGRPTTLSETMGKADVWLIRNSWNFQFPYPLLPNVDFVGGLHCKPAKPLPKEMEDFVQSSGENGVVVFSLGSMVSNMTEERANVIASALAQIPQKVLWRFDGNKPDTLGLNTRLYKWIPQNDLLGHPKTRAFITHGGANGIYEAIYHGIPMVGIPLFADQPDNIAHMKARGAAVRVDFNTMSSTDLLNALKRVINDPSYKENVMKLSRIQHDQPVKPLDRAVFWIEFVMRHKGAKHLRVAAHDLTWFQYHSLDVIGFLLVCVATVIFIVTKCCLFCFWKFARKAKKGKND
Protocol: as §2, §3

[6] = Stability tests of analytes in rat plasma QC samples; type: in vitro ADME
Protocol: […] The dilution integrity was investigated by analyzing six replicate samples with each analyte, and each analyte were diluted 10-fold with blank rat matrix. Furthermore, the diluted samples were analyzed using freshly prepared calibration curve to calculate RE and RSD, which should be no more than ± 15% as criterion.

[7] = urine and plasma, Kang-Ai injection 6 mL/kg iv, read-out: CLR (renal excretory clearance) (converted)
[8] = recombinant isozyme, read-out: IC50 towards CYP3A4
[9] = recombinant isozyme, read-out: IC50 towards UGT1A9
[10] = recombinant isozyme, mean ± SD of triplicate, unit not given (IC50 classes in μM), read-out: IC50 towards UGT2B7
[11] = rat plasma, nominal conc. 40 nM
[12] = rat plasma, nominal conc. 200 nM
[13] = rat plasma, nominal conc. 800 nM
[14] = rat plasma, nominal conc. 20 nM
[15] = rat plasma, nominal conc. 100 nM
[16] = rat plasma, nominal conc. 400 nM

Chain of CYP3A4 (P08684 whole entry): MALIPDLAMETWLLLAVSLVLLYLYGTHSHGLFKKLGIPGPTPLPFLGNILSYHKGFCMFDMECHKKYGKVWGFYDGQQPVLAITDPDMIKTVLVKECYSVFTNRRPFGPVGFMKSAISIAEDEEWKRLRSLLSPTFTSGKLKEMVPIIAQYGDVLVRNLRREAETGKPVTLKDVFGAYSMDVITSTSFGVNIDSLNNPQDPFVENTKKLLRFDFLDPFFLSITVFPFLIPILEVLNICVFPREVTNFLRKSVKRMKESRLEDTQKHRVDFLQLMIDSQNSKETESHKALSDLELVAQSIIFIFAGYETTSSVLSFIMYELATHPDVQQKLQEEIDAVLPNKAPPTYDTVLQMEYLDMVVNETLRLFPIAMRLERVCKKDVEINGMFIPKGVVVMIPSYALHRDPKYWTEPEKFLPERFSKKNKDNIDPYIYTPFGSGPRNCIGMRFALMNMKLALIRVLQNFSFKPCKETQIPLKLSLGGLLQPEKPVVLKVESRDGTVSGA

## CC(C)=CCC[C@](C)(O[C@@H]1O[C@H](CO)[C@@H](O)[C@H](O)[C@H]1O)[C@H]1CC[C@]2(C)[C@@H]1[C@H](O)C[C@@H]1[C@@]3(C)CC[C@H](O)C(C)(C)[C@@H]3[C@@H](O[C@@H]3O[C@H](CO)[C@@H](O)[C@H](O)[C@H]3O)C[C@]12C [Compound C6, Ginsenoside Rg1]
[1]; [7]
  CL renal: 1.04 mL/min
[1]; Kang-Ai injection 6 mL/kg iv
  fe-U,0–12h (fraction of dose excreted into urine): 39.79 ± 5.88%
[1]; rat urine + bile, 0–12 h, Kang-Ai injection 6 mL/kg iv
  fraction of dose excreted unchanged via renal plus hepatobiliary excretion (sum of fe-U and fe-B): ~60%
[2]
  fe-B,0–12h (fraction of dose excreted into bile): 20.71 ± 3.62%
[3]; [8]
  IC50: > 100 µM
[4]; [9]
  IC50: > 100 µM
[5]; [10]
  IC50: > 100 µM
[6]; [11]
  At -80 °C for 48 h, Mean±SD: 37.29 ± 1.37 nM
  At -80 °C for 48 h, RE: -10.20%
  Extracted samples at 8 °C for 18 h, Mean±SD: 35.69 ± 0.56 nM
  Extracted samples at 8 °C for 18 h, RE: -12.18%
  Short-term stability at room temperature for 6 h, Mean±SD: 38.60 ± 1.14 nM
  Short-term stability at room temperature for 6 h, RE: -6.74%
  Three freeze-thaw cycles (-80 °C ↔ 23 °C), Mean±SD: 39.64 ± 2.41 nM
  Three freeze-thaw cycles (-80 °C ↔ 23 °C), RE: -7.72%
[6]; [12]
  At -80 °C for 48 h, Mean±SD: 209.85 ± 12.74 nM
  At -80 °C for 48 h, RE: 10.34%
  Extracted samples at 8 °C for 18 h, Mean±SD: 197.72 ± 17.37 nM
  Extracted samples at 8 °C for 18 h, RE: 8.81%
  Short-term stability at room temperature for 6 h, Mean±SD: 204.22 ± 5.64 nM
  Short-term stability at room temperature for 6 h, RE: 4.83%
  Three freeze-thaw cycles (-80 °C ↔ 23 °C), Mean±SD: 189.03 ± 9.20 nM
  Three freeze-thaw cycles (-80 °C ↔ 23 °C), RE: -10.01%
[6]; [13]
  At -80 °C for 48 h, Mean±SD: 800.01 ± 77.30 nM
  At -80 °C for 48 h, RE: 11.14%
  Extracted samples at 8 °C for 18 h, Mean±SD: 826.40 ± 51.24 nM
  Extracted samples at 8 °C for 18 h, RE: 10.42%
  Short-term stability at room temperature for 6 h, Mean±SD: 737.30 ± 34.89 nM
  Short-term stability at room temperature for 6 h, RE: -11.11%
  Three freeze-thaw cycles (-80 °C ↔ 23 °C), Mean±SD: 739.78 ± 39.17 nM
  Three freeze-thaw cycles (-80 °C ↔ 23 °C), RE: -11.08%

## O=C1CCC[C@@H]2[C@H]3CCC[N+]4([O-])CCC[C@@H](CN12)[C@@H]34 (stereo partly drawn) [Compound A3, Oxymatrine]
[1]; in vivo, iv
  CL renal: 1.18 mL/min
[2]; male, Sprague-Dawley, rat, in vivo, iv
  CLB (hepatobiliary clearance): 31.95 ± 4.76 mL/h
[3]; IC50 towards CYP3A4, recombinant isozyme
  IC50: > 100 µM
[4]; IC50 towards UGT1A9, recombinant isozyme
  IC50: > 100 µM
[5]
  IC50: > 100 µM
[6]; rat, 80 nM
  Three freeze-thaw cycles (-80 °C ↔ 23 °C), Mean±SD: 82.92 ± 3.13 nM
[6]; rat, 400 nM
  Three freeze-thaw cycles (-80 °C ↔ 23 °C), Mean±SD: 406.54 ± 20.44 nM
[6]; rat, 1600 nM
  Three freeze-thaw cycles (-80 °C ↔ 23 °C), Mean±SD: 1588.35 ± 117.83 nM
[6]; rat, 6 h, 80 nM
  Short-term stability at room temperature for 6 h, Mean±SD: 81.69 ± 3.23 nM
[6]; rat, 6 h, 400 nM
  Short-term stability at room temperature for 6 h, Mean±SD: 391.75 ± 44.05 nM
[6]; rat, 6 h, 1600 nM
  Short-term stability at room temperature for 6 h, Mean±SD: 1629.42 ± 112.91 nM
[6]; rat, 18 h, 80 nM
  Extracted samples at 8 °C for 18 h, Mean±SD: 76.52 ± 2.34 nM
[6]; rat, 18 h, 400 nM
  Extracted samples at 8 °C for 18 h, Mean±SD: 410.83 ± 21.99 nM
[6]; rat, 18 h, 1600 nM
  Extracted samples at 8 °C for 18 h, Mean±SD: 1553.29 ± 127.31 nM
[6]; rat, 48 h, 80 nM
  At -80 °C for 48 h, Mean±SD: 83.89 ± 6.74 nM
[6]; rat, 48 h, 400 nM
  At -80 °C for 48 h, Mean±SD: 422.79 ± 10.74 nM
[6]; rat, 48 h, 1600 nM
  At -80 °C for 48 h, Mean±SD: 1578.58 ± 168.35 nM

## CC(C)=CCC[C@](C)(O)[C@H]1CC[C@]2(C)[C@@H]1[C@H](O)C[C@@H]1[C@@]3(C)CC[C@H](O)C(C)(C)[C@@H]3[C@@H](O[C@@H]3O[C@H](CO)[C@@H](O)[C@H](O)[C@H]3O[C@@H]3O[C@H](CO)[C@@H](O)[C@H](O)[C@H]3O)C[C@]12C [Compound C7, Ginsenoside Rf]
[1]; [7]
  CL renal: 0.322 mL/min
[1]; Kang-Ai injection 6 mL/kg iv
  fe-U,0–12h (fraction of dose excreted into urine): 17.77 ± 3.90%
[2]
  fe-B,0–12h (fraction of dose excreted into bile): 13.12 ± 1.68%
[3]; [8]
  IC50: > 100 µM
[4]; [9]
  IC50: > 100 µM
[5]; [10]
  IC50: > 100 µM
[6]; [14]
  At -80 °C for 48 h, Mean±SD: 21.60 ± 0.37 nM
  At -80 °C for 48 h, RE: 9.41%
  Extracted samples at 8 °C for 18 h, Mean±SD: 19.73 ± 2.64 nM
  Extracted samples at 8 °C for 18 h, RE: 13.56%
  Short-term stability at room temperature for 6 h, Mean±SD: 20.44 ± 2.11 nM
  Short-term stability at room temperature for 6 h, RE: 11.15%
  Three freeze-thaw cycles (-80 °C ↔ 23 °C), Mean±SD: 22.07 ± 0.56 nM
  Three freeze-thaw cycles (-80 °C ↔ 23 °C), RE: 13.46%
[6]; [15]
  At -80 °C for 48 h, Mean±SD: 100.58 ± 11.11 nM
  At -80 °C for 48 h, RE: 13.37%
  Extracted samples at 8 °C for 18 h, Mean±SD: 93.83 ± 2.15 nM
  Extracted samples at 8 °C for 18 h, RE: -8.56%
  Short-term stability at room temperature for 6 h, Mean±SD: 96.37 ± 9.64 nM
  Short-term stability at room temperature for 6 h, RE: -10.30%
  Three freeze-thaw cycles (-80 °C ↔ 23 °C), Mean±SD: 101.34 ± 13.26 nM
  Three freeze-thaw cycles (-80 °C ↔ 23 °C), RE: -13.01%
[6]; [16]
  At -80 °C for 48 h, Mean±SD: 428.42 ± 28.06 nM
  At -80 °C for 48 h, RE: 14.40%
  Extracted samples at 8 °C for 18 h, Mean±SD: 392.21 ± 39.26 nM
  Extracted samples at 8 °C for 18 h, RE: -12.43%
  Short-term stability at room temperature for 6 h, Mean±SD: 357.16 ± 4.75 nM
  Short-term stability at room temperature for 6 h, RE: -11.69%
  Three freeze-thaw cycles (-80 °C ↔ 23 °C), Mean±SD: 398.07 ± 39.06 nM
  Three freeze-thaw cycles (-80 °C ↔ 23 °C), RE: -10.52%
